Laboratory results published in patent publication US9849116B2 (KNOPP BIOSCIENCES LLC, priority 2008, dated 2017).
Several values for one entry are separate records, joined by “and”; a condition that tells them apart may be missing. Equal values may be shown once.

How the values were obtained:
[1] = molecular target: D1 dopamine receptor (Homo sapiens, UniProt P21728)
Method: (§1) These concentrations were tested in cell lines expressing select human cloned dopamine receptors (D2S, D3).

[2] = molecular target: D5 dopamine receptor (Homo sapiens, UniProt P21918)
Method: as §1

[3] = in vivo; conditions: both, rat, in vivo
Method: (§2) Following this study, 3- and 6-month repeat dose toxicology studies were completed at doses of 30, 100, and 300 mg/kg.

[4] = test system: rats; assay: in vivo
Method: as §2

[5] = clinical; conditions: human; for AUC(0-t): AUC(0-t) (mean ± SD); for Vd/F: Vz/F (mean ± SD); for CL renal: plasma and urine
Method: (§3) Safety observations included vital signs, physical examination, clinical laboratory tests, ECGs, and adverse event reporting. Blood and urine samples were collected pre-dose and for 72 hours post-dose to assess the pharmacokinetics.

[6] = test system: healthy volunteers; assay: clinical
Method: as §3

[7] = plasma, po, 50 mg, single 50 mg oral dose, fasted
[8] = plasma, po, 150 mg, single 150 mg oral dose, fasted
[9] = plasma, po, 150 mg, single 150 mg oral dose, fed
[10] = plasma, po, 300 mg, single 300 mg oral dose, fasted
[11] = single 150 mg oral dose, fasted
[12] = single 300 mg oral dose, fasted

Sequence of D1 dopamine receptor (P21728 whole entry): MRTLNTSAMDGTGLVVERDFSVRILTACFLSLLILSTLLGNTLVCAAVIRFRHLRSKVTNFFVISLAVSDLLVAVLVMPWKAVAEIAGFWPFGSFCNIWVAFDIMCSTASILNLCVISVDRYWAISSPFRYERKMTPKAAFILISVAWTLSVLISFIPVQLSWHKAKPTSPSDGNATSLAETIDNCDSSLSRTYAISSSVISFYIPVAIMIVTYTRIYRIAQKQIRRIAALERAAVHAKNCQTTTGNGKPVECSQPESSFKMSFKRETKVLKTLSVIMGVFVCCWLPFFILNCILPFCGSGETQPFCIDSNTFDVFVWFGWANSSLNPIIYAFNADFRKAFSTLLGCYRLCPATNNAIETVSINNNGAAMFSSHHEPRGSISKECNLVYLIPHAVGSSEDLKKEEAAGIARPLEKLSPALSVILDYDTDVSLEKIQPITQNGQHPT
Sequence of D5 dopamine receptor (P21918 whole entry): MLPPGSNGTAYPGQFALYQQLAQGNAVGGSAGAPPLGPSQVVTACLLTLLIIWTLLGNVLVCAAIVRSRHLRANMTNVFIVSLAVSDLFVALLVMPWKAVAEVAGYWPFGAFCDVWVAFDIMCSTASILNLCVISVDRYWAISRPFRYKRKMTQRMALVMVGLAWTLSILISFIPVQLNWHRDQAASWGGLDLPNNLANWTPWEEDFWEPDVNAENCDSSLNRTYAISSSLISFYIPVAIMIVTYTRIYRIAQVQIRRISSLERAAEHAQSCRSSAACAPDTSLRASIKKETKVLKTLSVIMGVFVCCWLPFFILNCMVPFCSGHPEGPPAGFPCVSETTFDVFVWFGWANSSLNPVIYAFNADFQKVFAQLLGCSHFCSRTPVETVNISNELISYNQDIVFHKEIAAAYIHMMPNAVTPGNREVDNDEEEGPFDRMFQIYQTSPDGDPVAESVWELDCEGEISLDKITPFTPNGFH

CCCN[C@@H]1CCc2nc(N)sc2C1 [(R)-pramipexole, (6R)-4,5,6,7-tetrahydro-N6-propyl-2,6-benzothiazole-diamine]
interaction with D1 dopamine receptor [1]: no significant interaction
interaction with D5 dopamine receptor [2]: no significant interaction
NOAEL at 3 months [3]: 100 mg/kg
NOAEL at 14 days [3]: 150 mg/kg
target organ toxicity by histopathology examination ([4]; rat, in vivo, 300 mg/kg): some target organ toxicity
test article related deaths ([4]; rats, 3 months, 30, 100, 300 mg/kg): no test article related deaths
mortality ([4]; rats, high dose 500 mg/kg, 14 days): caused mortality
AUC(0-t) ([5]; blood, po, 50 mg, single 50 mg oral dose, fasted): 989 ng·h/mL
AUC(0-inf) ([5]; blood, po, 50 mg, AUC(inf) (mean ± SD), single 50 mg oral dose, fasted): 1240 ng·h/mL
AUC(0-t) ([5]; blood, po, 150 mg, single 150 mg oral dose, fasted): 3390 ng·h/mL
AUC(0-inf) ([5]; blood, po, 150 mg, AUC(inf) (mean ± SD), single 150 mg oral dose, fasted): 3820 ng·h/mL
AUC(0-t) ([5]; blood, po, 300 mg, single 300 mg oral dose, fasted): 8340 ng·h/mL
Cmax ([5]; in vivo, oral, 150 mg): 315 ± 62 ng/mL
Tmax ([5]; in vivo, oral, 150 mg): 2.58 h
AUC(0-inf) ([5]; in vivo, oral, 150 mg, AUC (inf) (mean ± SD), CL001, 150 mg SD, second 150 mg line, Food printed Fasted): 3400 ng·h/mL
AUC(0-t) ([5]; in vivo, oral, 150 mg, CL001, 150 mg SD, second 150 mg line, Food printed Fasted): 3100 ng·h/mL
Vd/F ([5]; in vivo, oral, 150 mg, 150 mg SD, second 150 mg line, Food printed Fasted): 406 ± 62.8 L
AUC(0-inf) ([5]; in vivo, po, 300 mg, AUC(inf) (mean ± SD), single 300 mg oral dose, fasted): 8620 ng·h/mL
CL renal ([5]; po, 50 mg): 628 ± 149 mL/min
CL renal ([5]; po, 150 mg): 310 ± 74.3 mL/min
CL renal ([5]; po, 300 mg): 441 ± 159 mL/min
AUC(0-t) [5, 7]: 989 ± 295 ng·h/mL
AUC(0-inf) ([5]; plasma, po, 50 mg, AUC(inf) (mean ± SD), single 50 mg oral dose, fasted): 1250 ng·h/mL
Vd/F [5, 7]: 395 ± 61.9 L
AUC(0-inf) ([5]; plasma, po, 50 mg, mean exposure (AUC0-∞), single oral 50 mg, fasted): 1250 ng·h/mL
Cmax ([5]; plasma, po, 150 mg): 360 ng/mL
AUC(0-t) [5, 8]: 3390 ng·h/mL
AUC(0-t) [5, 9]: 3100 ng·h/mL
AUC(0-inf) ([5]; plasma, po, 150 mg, AUC(inf) (mean ± SD), single 150 mg oral dose, fasted): 3820 ng·h/mL
AUC(0-inf) ([5]; plasma, po, 150 mg, AUC(inf) (mean ± SD), single 150 mg oral dose, fed): 3400 ng·h/mL
Vd/F [5, 8]: 411 ± 81 L
Vd/F [5, 9]: 406 ± 62.8 L
AUC(0-inf) ([5]; plasma, po, 150 mg, mean exposure (AUC0-∞), single oral 150 mg, fasted): 3820 ng·h/mL
Cmax ([5]; plasma, po, 300 mg): 781 ng/mL
Tmax ([5]; plasma, po, 300 mg): 1.96 h
AUC(0-t) [5, 10]: 8340 ng·h/mL
AUC(0-inf) ([5]; plasma, po, 300 mg, AUC(inf) (mean ± SD), single 300 mg oral dose, fasted): 8620 ng·h/mL
Vd/F [5, 10]: 346 ± 98.5 L
AUC(0-inf) ([5]; plasma, po, 300 mg, mean exposure (AUC0-∞), single oral 300 mg, fasted): 8620 ng·h/mL
CL/F (mean ± SD) ([6]; 50 mg SD, Fasted): 706 ± 182 mL/h
CL/F (mean ± SD) ([6]; 150 mg SD, Fasted): 692 ± 183 mL/h
CL/F (mean ± SD) ([6]; 150 mg SD, second 150 mg line, Food printed Fasted): 774 ± 165 mL/h
CL/F (mean ± SD) ([6]; 300 mg SD, Fasted): 659 ± 260 mL/h
urinary excretion of unchanged drug, share of drug elimination ([6]; across dose levels): approximately 70%
CL/F (mean ± SD) ([6]; single 50 mg oral dose, fasted): 42400 ± 10900 mL/h
Fe (mean ± SD) ([6]; single 50 mg oral dose, fasted): 70.7 ± 10.4 % Dose
Ue (mean ± SD) ([6]; single 50 mg oral dose, fasted): 35.3 ± 5.19 mg and 35.3 ± 5.19 ^ mg
λz (mean ± SD) ([6]; single 50 mg oral dose, fasted): 0.1064 ± 0.0171 h⁻¹
CL/F (mean ± SD) [6, 11]: 41500 ± 11000 mL/h
Fe (mean ± SD) [6, 11]: 40.3 ± 4.69 % Dose
Ue (mean ± SD) [6, 11]: 60.5 ± 7.04 mg and 60.5 ± 7.04 ^ mg
λz (mean ± SD) [6, 11]: 0.1001 ± 0.0087 h⁻¹
CL/F (mean ± SD) ([6]; single 150 mg oral dose, fed): 46400 ± 9900 mL/h
λz (mean ± SD) ([6]; single 150 mg oral dose, fed): 0.1152 ± 0.0256 h⁻¹
effect of a high fat/high calorie meal on absorption and elimination ([6]; single 150 mg, fed versus fasted): essentially no effect
CL/F (mean ± SD) [6, 12]: 39500 ± 15600 mL/h
Fe (mean ± SD) [6, 12]: 65.8 ± 9.33 % Dose
Ue (mean ± SD) [6, 12]: 198 ± 28.0 mg and 198 ± 28.0 ^ mg
λz (mean ± SD) [6, 12]: 0.1151 ± 0.0309 h⁻¹
